For one assay, the system named is Phytophthora infestans. Nature of the assay: whole plant or invertebrate. It counts as in vivo. The note with it: Phytophthora infestans, in Solanum lycopersicum, 96 h, read-out: % control TLB.
Another assay deals with A.n. The assay is described as follows: Minimum Inhibitory Concentration Test, alternate (Table 4), A.n. The class given is cell-based, Aspergillus niger. The conditions noted are these: Aspergillus niger, TSB, 72 hours. The method, then: (§1) A 125 μl aliquot of 10,000 ppm test compound in acetone was added to 4.88 ml of TSB to provide a 250 ppm solution. From this solution, 100 μL was transferred to the first row of two microtiter plate columns. Both replicates and five additional compounds were all serially diluted 1:1 to a final concentration of 0.8 ppm in TSB.
(§2) Inoculation was accomplished by diluting a 24 hr Ps fl culture, four mls per 36 mls of phosphate buffer solution. A Dynatech autoinoculator was used to transfer 1.5 μl of this cell suspension to the microtiter plates. The plates were incubated at 30° C. for 3 days before the lowest concentration at which no growth occurs was recorded in the database. The SOK data and MIC test data on Ps.fl, Ps.ae, E.c, and S.a. bacteria and Candida albicans (C.alb), A.n and A.p fungi are listed in Table 4.

The test system of a further assay is Piricularia oryzae. The assay is described as follows: whole plant or invertebrate. It counts as in vivo. The conditions noted are these: Pyricularia oryzae, read-out: % control RB.
Assay [1] relates to Pseudoperonospora cubensis. Nature of the assay: whole plant or invertebrate. The class given is in vivo. The conditions noted are these: Pseudoperonospora cubensis, in Cucumis sativus, 168 h; read-out: % control CDM.
The test system of another assay is Pseudomonas fluorescens. The assay is described as follows: Minimum Inhibitory Concentration Test, alternate (Table 4), Ps.fl. It counts as cell-based. The conditions noted are these: Pseudomonas fluorescens, TSB, 72 hours, 30° C. The method, then:
as §1, §2

For assay [2], the system named is Erysiphe graminis (f. sp. tritici). Nature of the assay: whole plant or invertebrate. The note with it: Blumeria graminis; read-out: % control WPM. It counts as in vivo.
For assay [3], the system named is Puccinia recondita (f. sp. tritici Races PKB and PLD). The assay is described as follows: whole plant or invertebrate. It counts as in vivo. The conditions noted are these: Puccinia recondita, 240 h; read-out: % control WLR.
The test system of assay [4] is Pellicularia filamentosa (f. sp. sasiki). Nature of the assay: whole plant or invertebrate. The class given is in vivo. The note with it: 120 h; read-out: % control RSB.

As a reminder, the MIC is the lowest concentration found to suppress growth. High values mean weaker potency, low ones greater potency.

≈ marks a conversion by molar mass, not a printed value. Some results are limits rather than exact numbers.

As for `CCCCCCCCCCNC(=O)C(S/C=C\C(=O)NCCCCCCCC)C(=O)OCC` (stereo not drawn) [Example 26, N-n-octyl-cis-3-[2-(ethyl-N-n-decylmalonamido)thio]acrylamide], the pest or weed control at 200 ppm with Phytophthora infestans amounted to 80%; in the assay on Piricularia oryzae it was 50%; in assay [1], 100%; in assay [2], 50%; in assay [3], 75%; in assay [4], 0%. For the same molecule, the MIC against A.n and in the assay on Pseudomonas fluorescens was above 500 µg/mL in each case.
Turning to `CCCCCCCCCCCCNC(=O)C(S/C=C\C(=O)NCCCCCCCC)C(=O)OCC` (stereo not drawn) [Example 24, N-n-octyl-cis-3-[2-(ethyl-N-n-dodecylmalonamido)thio]acrylamide], the pest or weed control at 200 ppm with Phytophthora infestans came to 50%; in the assay with Piricularia oryzae it was 0%; in assay [1] it was 100%; in assay [2], 0%; in assay [3], 50%; in assay [4] it was 0%. Also, the minimal inhibitory concentration (MIC) is 250 µg/mL (≈ 488 µM) in the assay with A.n and above 500 µg/mL against Pseudomonas fluorescens.
Take `CCCCCCCCNC(=O)/C=C\SC(C(=O)NCCC)C(=O)OCC` (stereo not drawn) [Example 15, N-n-octyl-cis-3-[2-(ethyl-N-n-propylmalonamido)thio]acrylamide]: the pest or weed control at 200 ppm in the assay on Phytophthora infestans was 89%; in the assay with Piricularia oryzae, 40%; in assay [1] it was 100%; in assay [2], 25%; in assay [3], 62%. Moreover, the MIC against A.n was 63 µg/mL (≈ 163 µM); with Pseudomonas fluorescens, above 500 µg/mL. Further, in assay [4], the pest or weed control at 5200 ppm stood at 25%.
Consider `CCCCCCCCNC(=O)/C=C\SC(C(=O)NCc1ccc(OC)cc1)C(=O)OCC` (stereo not drawn) [Example 60, N-n-octyl-cis-3-{2-[ethyl-N-(4-methoxybenzyl)malonamido]thio}acrylamide], for which the pest or weed control at 100 ppm in the assay with Phytophthora infestans was determined as 80%; in the assay with Piricularia oryzae, 0%; in assay [1] it was 99%; in assay [2] it was 0%; in assay [3] it was 0%; in assay [4] it was 0%. Further, the MIC against A.n and against Pseudomonas fluorescens was above 250 µg/mL each time.
`CCCCCCCCNC(=O)/C=C\SC(C(=O)NC(C)CC)C(=O)OCC` (stereo not drawn) [Example 16, N-n-octyl-cis-3-[2-(ethyl-N-(1-methylpropyl)malonamido)thio]acrylamide]: the pest or weed control at 200 ppm in the assay with Phytophthora infestans is 47%; in the assay with Piricularia oryzae, 40%; in assay [1], 42%; in assay [2], 0%; in assay [3], 72%; in assay [4] it was 0%. Moreover, the MIC with A.n and against Pseudomonas fluorescens was above 500 µg/mL each time.
Regarding `CCCCCCCCNC(=O)/C=C\SC(C(=O)Nc1ccc(Cl)cc1)C(=O)OCC` (stereo not drawn) [Example 34, N-n-octyl-cis-3-{2-[ethyl-N-(4-chlorophenyl)malonamido]thio}acrylamide], the pest or weed control at 100 ppm is 50% in the assay with Phytophthora infestans; 0% with Piricularia oryzae; 85% in assay [1]; 50% in assay [2]; 50% in assay [3]; 0% in assay [4]. The MIC against A.n and against Pseudomonas fluorescens was above 500 µg/mL throughout.
In the case of `CCCCCCCCNC(=O)/C=C\SC(C(=O)NCCC)C(=O)NCCC` [Example 19, N-n-octyl-cis-3-[2-(N,N'-di-n-propylmalonodiamido)thio]acrylamide], the pest or weed control at 200 ppm in the assay on Phytophthora infestans came to 89%; in the assay on Piricularia oryzae it was 0%; in assay [1] it was 95%; in assay [2], 25%; in assay [3], 62%; in assay [4] it was 0%. Besides, the MIC against A.n and against Pseudomonas fluorescens was above 500 µg/mL throughout.
As to `CCCCCCCCNC(=O)/C=C\SC(C(=O)NCCCC)C(=O)OCC` (stereo not drawn) [Example 13, N-n-octyl-cis-3-[2-(ethyl-N-n-butylmalonamido)thio]acrylamide], the pest or weed control at 200 ppm in the assay with Phytophthora infestans came to 80%; in the assay with Piricularia oryzae, 50%; in assay [1] it was 99%; in assay [2], 75%; in assay [3], 50%; in assay [4] it was 0%.
Take `CCCCCCCCNC(=O)/C=C\SC(C(=O)Nc1cc(Cl)ccc1OC)C(=O)OCC` (stereo not drawn) [Example 46, N-n-octyl-cis-3-{2-[ethyl-N-(2-methoxy-5-chlorophenyl)malonamido]thio}acrylamide]: the pest or weed control at 100 ppm in the assay with Phytophthora infestans came out at 0%; in the assay with Piricularia oryzae, 80%; in assay [2], 0%; in assay [3], 50%; in assay [4] it was 50%. Further, the minimal inhibitory concentration (MIC) in the assay on A.n was 250 µg/mL (≈ 515 µM); with Pseudomonas fluorescens, above 500 µg/mL.
On to `CCCCCCCCNC(=O)/C=C\SC(C(=O)NCCCCCC#N)C(=O)OCC` (stereo not drawn) [Example 27, N-n-octyl-cis-3-{2-[ethyl-N-(5-cyanopentyl)malonamido]thio}acrylamide], for which the pest or weed control at 200 ppm came out at 100% in the assay on Phytophthora infestans; 98% in the assay on Piricularia oryzae; 100% in assay [1]; 0% in assay [2]; 0% in assay [4]. Besides, the MIC with A.n and against Pseudomonas fluorescens was above 500 µg/mL throughout.
Regarding `CCCCCCCCNC(=O)/C=C\SC(C(=O)NCc1ccc(Cl)cc1)C(=O)OCC` (stereo not drawn) [Example 22, N-n-octyl-cis-3-{2-[ethyl-N-(4-chlorobenzyl)malonamido]thio}acrylamide], in the assay with Phytophthora infestans, the pest or weed control at 100 ppm stood at 99%. For the same molecule, the MIC against A.n and in the assay with Pseudomonas fluorescens was above 500 µg/mL each time. Also, the pest or weed control at 200 ppm in the assay with Piricularia oryzae amounted to 90%; in assay [1], 100%; in assay [2], 37%; in assay [3], 50%; in assay [4] it was 0%.
As to `CCCCCCCCNC(=O)/C=C\SC(C(C)=O)C(=O)Nc1ccccc1` (stereo not drawn) [Example 31, N-n-octyl-cis-3-[2-(N-phenylacetoacetamido)thio]acrylamide], the pest or weed control at 200 ppm in the assay with Phytophthora infestans was 95%; in the assay with Piricularia oryzae, 95%; in assay [1] it was 100%; in assay [2], 0%; in assay [3], 50%; in assay [4], 0%. Moreover, the MIC in the assay on A.n was 250 µg/mL (≈ 640 µM); in the assay with Pseudomonas fluorescens it was 500 µg/mL (≈ 1280 µM).
As to `CCCCCCCCNC(=O)/C=C\SC(C(=O)Nc1ccccc1Cl)C(=O)OCC` (stereo not drawn) [Example 21, N-n-octyl-cis-3-{2-[ethyl-N-(2-chlorophenyl)malonamido]thio}acrylamide], the pest or weed control at 200 ppm with Phytophthora infestans stood at 97%; with Piricularia oryzae, 100%; in assay [1], 97%; in assay [2], 62%; in assay [3] it was 75%; in assay [4], 0%. The MIC against A.n was 8 µg/mL (≈ 17.6 µM); against Pseudomonas fluorescens, above 500 µg/mL.
Turning to `CCCCCCCCNC(=O)/C=C\SC(C(=O)Nc1ccccn1)C(=O)OCC` (stereo not drawn) [Example 44, N-n-octyl-cis-3-{2-[ethyl-N-(2-pyridyl)malonamido]thio}acrylamide], the pest or weed control at 100 ppm was 0% in the assay on Phytophthora infestans; 50% in the assay on Piricularia oryzae; 0% in assay [2]; 75% in assay [3]; 0% in assay [4]. Moreover, the MIC is 250 µg/mL (≈ 593 µM) against A.n and above 500 µg/mL against Pseudomonas fluorescens.
Turning to `CCCCCCCCNC(=O)/C=C\SC(C(=O)NCC(C)C)C(=O)OCC` (stereo not drawn) [Example 14, N-n-octyl-cis-3-[2-(ethyl-N-(2-methylpropyl)malonamido)thio]acrylamide], the pest or weed control at 200 ppm in the assay with Phytophthora infestans worked out at 50%; in the assay on Piricularia oryzae it was 0%; in assay [1] it was 95%; in assay [2], 75%; in assay [3], 50%; in assay [4] it was 0%.
For the molecule `CCCCCCCCNC(=O)/C=C\SC(C(=O)Nc1ccc(Cl)cc1C#N)C(=O)OCC` (stereo not drawn) [Example 43, N-n-octyl-cis-3-{2-[ethyl-N-(2-cyano-4-chlorophenyl)malonamido]thio}acrylamide], the pest or weed control at 100 ppm in the assay with Phytophthora infestans was found to be 80%; in the assay with Piricularia oryzae it was 100%; in assay [1], 100%; in assay [2], 50%; in assay [3], 75%; in assay [4], 0%.

The values above are taken from patent US5118681A (priority 1989, dated 1992).
